Values joined by “and” are separate entries in the source; they are usually repeats but may differ in a detail not shown here. Identical values can stand only once.
Tested on: DMS 114 tumor spheroids, viability % test/control
Assay: Anticancer human tumor DMS 114 cell line growth inhibition;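 also: spheroids exposed to compounds for 7 days before read-out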;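 as to viability, T/C: luminescence used as a proxy for viable cells; 100% = DMSO vehicle control viability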
Conditions: spheroids with HUVEC and MSC; for viability, T/C: stronger effect = lower value
Procedure, shortened: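 Complex tumor spheroids combined malignant cells with endothelial cells and mesenchymal stem cells. DNA-damaging drugs and DNA repair inhibitors were tested alone and in combination, at half-log dilutions down from clinical Cmax (top 10 microM if Cmax unknown), 0.25% DMSO final.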

[1] = curve of first compound, second compound 0.003 µM
[2] = second compound 0.003 µM, first compound 0.0949 µM
[3] = second compound 0.003 µM, first compound 0.3 µM
[4] = second compound 0.003 µM, first compound 0.949 µM
[5] = second compound 0.003 µM, first compound 3 µM

O=C(c1cc(Cc2n[nH]c(=O)c3ccccc23)ccc1F)N1CCN(C(=O)C2CC2)CC1 + COc1cc2c(cc1O)CCNC21CSC2c3c(OC(C)=O)c(C)c4c(c3C(COC1=O)N1C(O)C3Cc5cc(C)c(OC)c(O)c5C(C21)N3C)OCO4
IC50 (curve of first compound, second compound 30 pM): 5540 nM | IC50 (curve of first compound, second compound 94.9 pM): 3670 nM | IC50 (curve of first compound, second compound 0.0003 µM): < 94.9 nM | IC50 (curve of first compound, second compound 0.000949 µM): < 94.9 nM | IC50 [1]: < 94.9 nM | viability, T/C (second compound 30 pM, first compound 0.0949 µM): 106% | viability, T/C (second compound 30 pM, first compound 0.3 µM): 103% | viability, T/C (second compound 30 pM, first compound 0.949 µM): 97.1% | viability, T/C (second compound 30 pM, first compound 3 µM): 83.8% | viability, T/C (second compound 30 pM, first compound 9.49 µM): 20.2% | viability, T/C (second compound 30 pM, first compound 30 µM): 17.4% | viability, T/C (second compound 94.9 pM, first compound 0.0949 µM): 92.3% | viability, T/C (second compound 94.9 pM, first compound 0.3 µM): 94.6% | viability, T/C (second compound 94.9 pM, first compound 0.949 µM): 88.1% | viability, T/C (second compound 94.9 pM, first compound 3 µM): 57.2% | viability, T/C (second compound 94.9 pM, first compound 9.49 µM): 17.3% | viability, T/C (second compound 94.9 pM, first compound 30 µM): 13.7% | viability, T/C (second compound 0.0003 µM, first compound 0.0949 µM): 29.5% | viability, T/C (second compound 0.0003 µM, first compound 0.3 µM): 21.9% | viability, T/C (second compound 0.0003 µM, first compound 0.949 µM): 23.2% | viability, T/C (second compound 0.0003 µM, first compound 3 µM): 14.8% | viability, T/C (second compound 0.0003 µM, first compound 9.49 µM): 7.77% | viability, T/C (second compound 0.0003 µM, first compound 30 µM): 7.92% | viability, T/C (second compound 0.000949 µM, first compound 0.0949 µM): 3.19% | viability, T/C (second compound 0.000949 µM, first compound 0.3 µM): 2.4% | viability, T/C (second compound 0.000949 µM, first compound 0.949 µM): 2.21% | viability, T/C (second compound 0.000949 µM, first compound 3 µM): 2.86% | viability, T/C (second compound 0.000949 µM, first compound 9.49 µM): 1.24% | viability, T/C (second compound 0.000949 µM, first compound 30 µM): 0.5% | viability, T/C [2]: 0.24% | viability, T/C [3]: 0.22% | viability, T/C [4]: 0.19% | viability, T/C [5]: 0.2% | viability, T/C (second compound 0.003 µM, first compound 9.49 µM): 0.19% | viability, T/C (second compound 0.003 µM, first compound 30 µM): 0.4%

Cn1ncnc1[C@H]1c2n[nH]c(=O)c3cc(F)cc(c23)N[C@@H]1c1ccc(F)cc1 + CC[C@@]1(O)C(=O)OCc2c1cc1n(c2=O)Cc2cc3c(CN(C)C)c(O)ccc3nc2-1
IC50 [1]: 178 nM | IC50 (curve of first compound, second compound 0.00949 µM): < 9.49 nM | IC50 (curve of first compound, second compound 0.03 µM): < 9.49 nM | IC50 (curve of first compound, second compound 0.0949 µM): < 9.49 nM | IC50 (curve of first compound, second compound 0.3 µM): < 9.49 nM | viability, T/C (second compound 0.003 µM, first compound 0.00949 µM): 80.7% | viability, T/C (second compound 0.003 µM, first compound 0.03 µM): 72.9% | viability, T/C [2]: 62% | viability, T/C [3]: 38.9% | viability, T/C [4]: 25.2% | viability, T/C [5]: 8.5% | viability, T/C (second compound 0.00949 µM, first compound 0.00949 µM): 50.9% | viability, T/C (second compound 0.00949 µM, first compound 0.03 µM): 37.5% | viability, T/C (second compound 0.00949 µM, first compound 0.0949 µM): 32.6% | viability, T/C (second compound 0.00949 µM, first compound 0.3 µM): 25.3% | viability, T/C (second compound 0.00949 µM, first compound 0.949 µM): 16.4% | viability, T/C (second compound 0.00949 µM, first compound 3 µM): 9.08% | viability, T/C (second compound 0.03 µM, first compound 0.00949 µM): 18.6% | viability, T/C (second compound 0.03 µM, first compound 0.03 µM): 18.6% | viability, T/C (second compound 0.03 µM, first compound 0.0949 µM): 16.2% | viability, T/C (second compound 0.03 µM, first compound 0.3 µM): 14% | viability, T/C (second compound 0.03 µM, first compound 0.949 µM): 10% | viability, T/C (second compound 0.03 µM, first compound 3 µM): 4.96% | viability, T/C (second compound 0.0949 µM, first compound 0.00949 µM): 12.8% | viability, T/C (second compound 0.0949 µM, first compound 0.03 µM): 10.6% | viability, T/C (second compound 0.0949 µM, first compound 0.0949 µM): 10.9% | viability, T/C (second compound 0.0949 µM, first compound 0.3 µM): 10.4% | viability, T/C (second compound 0.0949 µM, first compound 0.949 µM): 6.74% | viability, T/C (second compound 0.0949 µM, first compound 3 µM): 3.77% | viability, T/C (second compound 0.3 µM, first compound 0.00949 µM): 7.76% | viability, T/C (second compound 0.3 µM, first compound 0.03 µM): 7.9% | viability, T/C (second compound 0.3 µM, first compound 0.0949 µM): 7.53% | viability, T/C (second compound 0.3 µM, first compound 0.3 µM): 5.94% | viability, T/C (second compound 0.3 µM, first compound 0.949 µM): 5.76% | viability, T/C (second compound 0.3 µM, first compound 3 µM): 2.99%

COc1cc(C)[nH]c(=O)c1CN1CCc2c(Cl)cc(C(OC)C3COC3)c(Cl)c2C1=O (configuration not stated)
viability, T/C (compound 0.0316 µM): 99.2% and 104% and 106% | viability, T/C (compound 0.1 µM): 92.3% and 96.3% and 96.5% | viability, T/C (compound 0.316 µM): 84.5% and 87.3% and 86.1% | viability, T/C (compound 1 µM): 78% and 79.3% and 78.8% | viability, T/C (compound 3.16 µM): 72.8% and 77.8% and 73.3% | viability, T/C (compound 10 µM): 72.2% and 72.6% and 72.4% | IC50 (curve of compound): > 10000 nM
